Our source for the EC50 values is patent US10759816B2, “Heterocyclic compounds as RSV inhibitors” (Enanta Pharmaceuticals, Inc., priority 2016, dated 2020).

The test system of this assay is genotype A, "Long" strain RSV. Description: RSV-A in vitro cytoprotection assay in HEp-2 cells (ATPlite readout of cell viability). The assay is classed as cell-based, Human respiratory syncytial virus. As to conditions: human respiratory syncytial virus, HEp-2, HEp-2 cells, genotype A “Long” strain RSV, cytoprotection; read-out: Human RSV-A (“Long” strain) EC50. Put shortly: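 Cytoprotection measured as ATP-based luminescence (ATPlite) after 4-day incubation of RSV Long-infected HEp-2 cells (8,000/well, 10% FBS DMEM) with 2-fold serial compound dilutions in duplicate. Identically treated virus-free plate gives cytotoxicity; EC50 calculated from viability.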
For orientation: Cellular ATP, detected with luciferase, serves as a proxy for viable cell number.

SMILES strings stand for the structures.

As for `Cc1cccc(F)c1NC(=O)c1cc2c(s1)-c1ccccc1N(C(=O)c1cccc(N3CCOc4cccc(Br)c4C3)n1)CC2` [Example 369], the half-maximal effective concentration (EC50) (commonly the concentration at which the effect is half-maximal) was 400 to 800 nM. The same measure for `Cc1ccc2[nH]cc(-c3cccc(C(=O)N4CCc5cc(C(=O)Nc6c(C)cccc6F)sc5-c5ccccc54)n3)c2c1` [Example 255]: 400 to 800 nM; for `Cc1cccc(F)c1NC(=O)c1cc2c(s1)-c1ccccc1N(C(=O)c1cccc(NCCS(C)(=O)=O)n1)CC2` [Example 422]: over 800 nM; for `Cc1cc(-c2ccc(C(=O)N3CCc4cc(C(=O)Nc5c(C)cccc5F)sc4-c4ccccc43)cc2)n[nH]1` [Example 270]: over 800 nM. In the case of `COCCNc1cccc(C(=O)N2CCc3cc(C(=O)NC4CC4)sc3-c3ccccc32)n1` [Example 33], the EC50 was 400 to 800 nM. In the case of `O=C(NC1CC1)c1cc2c(s1)-c1ccccc1N(C(=O)c1cccc(N3CCOC[C@@H]3c3ccccc3)n1)CC2` [Example 276], the concentration for a half-maximal effect (EC50) was over 800 nM. Take `O=C(NC1CS(=O)(=O)C1)c1cc2c(s1)-c1ccccc1N(C(=O)c1cccc(-c3c[nH]nc3C3CC3)n1)CC2` [Example 181]: the EC50 is over 800 nM.

As for `Cc1cnc(N2CCC3(COC3)C2)c(NC(=O)c2ccc(C(=O)N3CCc4cc(C(=O)Nc5c(C)cccc5F)sc4-c4ccccc43)cc2)c1` [Example 139], the EC50 is over 800 nM. As to `O=C(NC1CC1)c1cc2c(s1)-c1ccccc1N(C(=O)c1ccc(Cl)c(N3CCOCC3)n1)CC2` [Example 42], the EC50 was 400 to 800 nM. In the case of `COCCCN(C)c1cccc(C(=O)N2CCc3cc(C(=O)Nc4c(C)cccc4F)sc3-c3ccccc32)n1` [Example 334], the EC50 is over 800 nM. `COc1ccc2cc(CN(C)c3cccc(C(=O)N4CCc5cc(C(=O)Nc6c(C)cccc6F)sc5-c5ccccc54)n3)ccc2c1` [Example 356]: the EC50 was over 800 nM. For `O=C(NC1CC1)c1cc2c(s1)-c1ccccc1N(S(=O)(=O)c1cccc(N3CCCOCC3)n1)CC2` [Example 102], the EC50 is over 800 nM. With `O=C(NC1CC1)c1cc2c(s1)-c1ccccc1N(C(=O)c1cccc(N3CCOCC3)n1)CC2` [Example 16], the EC50 lay within 400 to 800 nM.

For `Cc1cccc(F)c1NC(=O)c1cc2c(s1)-c1ccccc1N(C(=O)c1cccc(NC3CCS(=O)(=O)CC3)n1)CC2` [Example 454], the concentration for a half-maximal effect (EC50) was over 800 nM.

Turning to `O=C(NC1CC1)c1cc2c(s1)-c1ccccc1N(C(=O)c1cccc(-c3cccc(N4CCOCC4)c3)n1)CC2` [Example 67], the 50% effective concentration (EC50) was over 800 nM. As to `Cc1cccc(F)c1NC(=O)c1cc2c(s1)-c1ccccc1N(C(=O)c1ccc(-c3c[nH]nc3C)cc1)CC2` [Example 269], the concentration for a half-maximal effect (EC50) is over 800 nM.

In the case of `O=C(Nc1ccccc1)Nc1cc2c(s1)-c1ccccc1N(C(=O)c1cccc(N3CCOc4ccccc4C3)n1)CC2` [Example 311], the EC50 is over 800 nM. As to `O=C(NC1CC1)c1cc2c(s1)-c1ccccc1N(C(=O)c1cccc(-c3ccc(F)nc3)n1)CC2` [Example 81], the half-maximal effective concentration (EC50) lay within 400 to 800 nM.

As to `N[C@@H]1CCN(c2cccc(C(=O)N3CCc4cc(C(=O)NC5CC5)sc4-c4ccccc43)n2)C1` [Example 38], the concentration giving a half-maximal response (EC50) was over 800 nM. `Cc1cccc(F)c1NC(=O)c1cc2c(s1)-c1ccccc1N(C(=O)c1cccc(N3C[C@@H]4C[C@H]3CO4)n1)CC2` [Example 430]: the EC50 was under 400 nM.

As for `CC(=O)N1CC(NC(=O)c2cc3c(s2)-c2ccccc2N(C(=O)c2cccc(-c4c[nH]nc4C4CC4)n2)CC3)C1` [Example 185], the EC50 was over 800 nM. On to `O=C(NC1CC1)c1cc2c(s1)-c1ccccc1N(C(=O)c1cccc(N3CCN(C4COC4)CC3)n1)CC2` [Example 27], for which the EC50 fell in the range of 400 to 800 nM.

For the molecule `O=C(Nc1ccc[nH]c1=O)c1cc2c(s1)-c1ccccc1N(C(=O)c1cccc(N3CCOc4ccccc4C3)n1)CC2` [Example 303], the EC50 is over 800 nM. The same measure for `Cc1cccc(F)c1NC(=O)c1cc2c(s1)-c1ccccc1N(C(=O)c1ccc(NC(=O)N3CC4(CCOCC4)C3)cc1)CC2` [Example 130]: over 800 nM; for `Cc1cccc(F)c1NC(=O)c1cc2c(s1)-c1ccccc1N(C(=O)c1cccc(NC3CS(=O)(=O)C3)n1)CC2` [Example 440]: under 400 nM. Regarding `O=C(NC1CC(F)(F)C1)c1cc2c(s1)-c1ccccc1N(C(=O)c1cccc(-c3c[nH]nc3C3CC3)n1)CC2` [Example 179], the EC50 is under 400 nM.

In the case of `Cc1cccc(F)c1NC(=O)c1cc2c(s1)-c1ccccc1N(C(=O)c1cccc(-c3c[nH]c4ccc(Cl)cc34)n1)CC2` [Example 249], the EC50 was under 400 nM.

As to `CNC(=O)c1ccc(-c2cccc(C(=O)N3CCc4cc(C(=O)NC5CC5)sc4-c4ccccc43)n2)cn1` [Example 83], the EC50 lay in the range of 400 to 800 nM. With `O=C(NC1CC1)c1cc2c(s1)-c1ccccc1N(C(=O)c1cccc(-c3nncn3C3CCOCC3)n1)CC2` [Example 124], the EC50 was over 800 nM. As to `O=C(N[C@H]1CCOC1)c1cc2c(s1)-c1ccccc1N(C(=O)c1cccc(-c3c[nH]nc3C3CC3)n1)CC2` [Example 177], the EC50 is under 400 nM.

Consider `Cc1cccc(F)c1NC(=O)c1cc2c(s1)-c1ccc(F)cc1N(C(=O)c1cccc(-c3cn[nH]c3C3CC3)n1)CC2` [Example 170], for which the EC50 is under 400 nM. `COc1ccc2c(c1)CN(c1cccc(C(=O)N3CCc4cc(C(=O)NC5CC5)sc4-c4ccccc43)n1)CCO2` [Example 280]: the EC50 was under 400 nM. Consider `COc1ccc(-c2cccc(C(=O)N3CCc4cc(C(=O)NC5CC5)oc4-c4ccccc43)n2)cn1` [Example 107], for which the half-maximal effective concentration (EC50) lay within 400 to 800 nM. For the molecule `Cc1cccc(F)c1NC(=O)c1cc2c(s1)-c1ccccc1N(C(=O)c1cccc(N(CCO)C3CC3)n1)CC2` [Example 326], the EC50 is 400 to 800 nM. For `Cc1cccc(F)c1NC(=O)c1cc2c(s1)-c1ccc(F)cc1N(C(=O)c1cccc(N3C[C@@H](O)C[C@@H]3C)n1)CC2` [Example 493], the concentration for a half-maximal effect (EC50) is under 400 nM. With `CC(=O)N1CCC(c2cccc(C(=O)N3CCc4cc(C(=O)NC5CC5)sc4-c4ccccc43)n2)CC1` [Example 58], the EC50 fell in the range of 400 to 800 nM.

Take `Cc1cccc(F)c1NC(=O)c1cc2c(s1)-c1ccccc1N(C(=O)c1cccc(-c3cncn3C3(C)CC3)n1)CC2` [Example 201]: the half-maximal effective concentration (EC50) is over 800 nM.

Consider `COc1ccccc1CNc1cccc(C(=O)N2CCc3cc(C(=O)NC4CC4)sc3-c3ccccc32)n1` [Example 287], for which the EC50 is over 800 nM. For the molecule `Cc1cccc(F)c1NC(=O)c1cc2c(s1)-c1ccccc1N(C(=O)c1cccc(-c3coc4ccccc34)n1)CC2` [Example 256], the EC50 is under 400 nM. Turning to `Cc1cccc(F)c1NC(=O)c1cc2c(s1)-c1ccccc1N(C(=O)c1cccc(NCC(C)(C)S(C)(=O)=O)n1)CC2` [Example 465], the 50% effective concentration (EC50) fell in the range of 400 to 800 nM. `Cc1cccc(F)c1NC(=O)c1cc2c(s1)-c1ccccc1N(C(=O)c1cccc(N3CCS(=O)(=O)CC3)n1)CC2` [Example 418]: the concentration giving a half-maximal response (EC50) was under 400 nM. On to `Cc1cnc(N2CC3(CCCOC3)C2)c(NC(=O)c2ccc(C(=O)N3CCc4cc(C(=O)Nc5c(C)cccc5F)sc4-c4ccccc43)cc2)c1` [Example 138], for which the concentration giving a half-maximal response (EC50) was over 800 nM. For `Cc1cccc(F)c1NC(=O)c1cc2c(s1)-c1ccccc1N(C(=O)c1cccc(N3CCOc4c(F)cccc4C3)n1)CC2` [Example 365], the concentration giving a half-maximal response (EC50) is under 400 nM.

As to `Cc1cccc(F)c1NC(=O)c1cc2c(s1)-c1ccc(F)cc1N(C(=O)c1cccc(N3CCOc4ccccc4C3)n1)CC2` [Example 488], the EC50 was under 400 nM.
